Measurements taken from ChEMBL document CHEMBL5653615 (J Biol Chem, 2013).
Blank lines part the entries; values can stand above or below the compound they belong to.

Columns and labels:
[1] = target: Serine/threonine-protein kinase pim-2 (Homo sapiens) (UniProt Q9P1W9); assay: Inhibition of human PIM2 at 500 nM by HotSpot assay relative to control
[2] = target: Platelet-derived growth factor receptor alpha (Homo sapiens) (UniProt P16234); assay: Inhibition of human PDGFRa at 18.6 nM by HotSpot assay relative to control
Sequence of Platelet-derived growth factor receptor alpha (Homo sapiens) (P16234 whole entry): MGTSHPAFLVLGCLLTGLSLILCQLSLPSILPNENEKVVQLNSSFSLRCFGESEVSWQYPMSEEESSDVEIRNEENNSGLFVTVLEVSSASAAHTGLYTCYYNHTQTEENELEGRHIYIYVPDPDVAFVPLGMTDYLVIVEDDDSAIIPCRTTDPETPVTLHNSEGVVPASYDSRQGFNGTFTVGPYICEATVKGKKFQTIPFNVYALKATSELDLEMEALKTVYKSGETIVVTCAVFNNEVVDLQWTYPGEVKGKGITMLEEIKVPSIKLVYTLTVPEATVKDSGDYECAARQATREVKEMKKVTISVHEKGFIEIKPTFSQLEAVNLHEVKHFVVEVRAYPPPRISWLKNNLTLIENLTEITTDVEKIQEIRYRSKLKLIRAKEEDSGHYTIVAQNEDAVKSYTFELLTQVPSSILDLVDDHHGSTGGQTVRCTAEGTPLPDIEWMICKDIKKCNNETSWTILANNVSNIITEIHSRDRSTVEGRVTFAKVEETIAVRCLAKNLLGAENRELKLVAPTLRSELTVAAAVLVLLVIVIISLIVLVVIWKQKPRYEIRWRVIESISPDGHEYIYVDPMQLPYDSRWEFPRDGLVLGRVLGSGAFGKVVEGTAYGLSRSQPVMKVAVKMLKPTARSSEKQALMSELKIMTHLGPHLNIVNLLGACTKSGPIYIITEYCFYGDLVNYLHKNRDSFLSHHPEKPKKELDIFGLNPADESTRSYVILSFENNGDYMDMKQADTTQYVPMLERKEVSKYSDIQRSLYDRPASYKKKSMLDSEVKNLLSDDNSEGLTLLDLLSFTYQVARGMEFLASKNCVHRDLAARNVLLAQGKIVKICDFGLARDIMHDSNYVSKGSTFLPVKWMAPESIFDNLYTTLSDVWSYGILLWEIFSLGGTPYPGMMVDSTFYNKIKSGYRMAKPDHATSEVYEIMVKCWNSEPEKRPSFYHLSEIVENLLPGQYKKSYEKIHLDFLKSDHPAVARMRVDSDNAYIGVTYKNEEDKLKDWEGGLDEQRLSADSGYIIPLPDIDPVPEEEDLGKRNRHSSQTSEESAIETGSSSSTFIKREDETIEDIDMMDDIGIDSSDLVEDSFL

[3] = target: Mitogen-activated protein kinase kinase kinase kinase 4 (Homo sapiens) (UniProt O95819); assay: Inhibition of human HGK at 18.6 nM by HotSpot assay relative to control
[4] = target: T1, Mitogen-activated protein kinase kinase kinase kinase 2 (Homo sapiens) (UniProt Q12851); assay: Inhibition of human GCK at 18.6 nM by HotSpot assay relative to control
T1 sequence (whole entry): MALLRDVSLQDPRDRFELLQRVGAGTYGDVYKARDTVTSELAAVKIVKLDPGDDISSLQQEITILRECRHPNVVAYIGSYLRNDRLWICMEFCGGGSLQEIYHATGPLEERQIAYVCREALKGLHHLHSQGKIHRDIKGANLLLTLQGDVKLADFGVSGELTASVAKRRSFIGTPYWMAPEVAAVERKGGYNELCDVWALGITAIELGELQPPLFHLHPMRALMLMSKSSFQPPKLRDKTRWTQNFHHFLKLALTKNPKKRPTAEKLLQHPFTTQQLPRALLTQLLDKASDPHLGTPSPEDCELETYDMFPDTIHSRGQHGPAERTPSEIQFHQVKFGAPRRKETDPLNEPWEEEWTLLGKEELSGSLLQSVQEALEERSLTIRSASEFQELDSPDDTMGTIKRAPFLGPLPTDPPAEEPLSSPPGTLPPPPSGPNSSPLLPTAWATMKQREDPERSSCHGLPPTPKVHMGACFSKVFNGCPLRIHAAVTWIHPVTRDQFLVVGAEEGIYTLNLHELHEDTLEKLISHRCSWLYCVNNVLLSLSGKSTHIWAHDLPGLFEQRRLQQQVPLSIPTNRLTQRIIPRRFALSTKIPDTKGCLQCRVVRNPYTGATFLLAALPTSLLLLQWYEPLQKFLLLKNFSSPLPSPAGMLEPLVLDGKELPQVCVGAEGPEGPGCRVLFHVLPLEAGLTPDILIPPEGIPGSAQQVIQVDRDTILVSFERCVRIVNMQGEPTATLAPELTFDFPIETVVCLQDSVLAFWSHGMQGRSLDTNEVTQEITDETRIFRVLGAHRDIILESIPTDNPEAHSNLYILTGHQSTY

[5] = target: Tyrosine-protein kinase Fgr (Homo sapiens) (UniProt P09769); assay: Inhibition of human FGR at 18.6 nM by HotSpot assay relative to control
Sequence of Tyrosine-protein kinase Fgr (Homo sapiens) (P09769 2-529 limits assumed): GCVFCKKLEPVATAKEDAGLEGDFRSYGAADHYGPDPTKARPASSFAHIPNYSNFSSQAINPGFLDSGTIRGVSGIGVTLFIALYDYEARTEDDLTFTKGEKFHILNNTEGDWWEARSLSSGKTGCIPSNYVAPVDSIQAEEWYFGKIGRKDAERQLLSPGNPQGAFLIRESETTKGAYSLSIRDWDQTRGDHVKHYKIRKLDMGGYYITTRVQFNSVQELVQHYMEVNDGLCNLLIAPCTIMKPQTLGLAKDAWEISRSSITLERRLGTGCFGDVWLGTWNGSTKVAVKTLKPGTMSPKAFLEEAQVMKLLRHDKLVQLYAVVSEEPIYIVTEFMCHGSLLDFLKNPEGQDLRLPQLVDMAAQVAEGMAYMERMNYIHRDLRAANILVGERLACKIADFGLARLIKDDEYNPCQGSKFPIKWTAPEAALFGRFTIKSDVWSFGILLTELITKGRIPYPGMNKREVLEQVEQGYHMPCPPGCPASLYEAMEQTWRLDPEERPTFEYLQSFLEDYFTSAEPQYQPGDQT

[6] = target: CDK3/Cyclin E (Homo sapiens) (UniProt P24864+Q00526); assay: Inhibition of human CDK3/cyclin E at 18.6 nM by HotSpot assay relative to control; type: protein-complex assay
Sequence of CDK3/Cyclin E (Homo sapiens) (P24864 whole entry, looked up): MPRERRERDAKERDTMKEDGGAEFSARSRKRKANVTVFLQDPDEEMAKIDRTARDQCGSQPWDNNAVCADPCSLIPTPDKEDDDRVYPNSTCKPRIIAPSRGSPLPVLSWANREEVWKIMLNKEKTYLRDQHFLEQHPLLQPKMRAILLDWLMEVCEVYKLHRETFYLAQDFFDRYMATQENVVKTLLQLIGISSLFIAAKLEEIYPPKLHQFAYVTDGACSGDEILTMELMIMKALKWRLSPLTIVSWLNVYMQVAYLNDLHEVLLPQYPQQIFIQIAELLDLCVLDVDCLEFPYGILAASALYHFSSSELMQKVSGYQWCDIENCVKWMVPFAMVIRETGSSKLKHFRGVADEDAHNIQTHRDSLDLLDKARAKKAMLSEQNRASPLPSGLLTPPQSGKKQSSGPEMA
Sequence of CDK3/Cyclin E (Homo sapiens) (Q00526 whole entry, looked up): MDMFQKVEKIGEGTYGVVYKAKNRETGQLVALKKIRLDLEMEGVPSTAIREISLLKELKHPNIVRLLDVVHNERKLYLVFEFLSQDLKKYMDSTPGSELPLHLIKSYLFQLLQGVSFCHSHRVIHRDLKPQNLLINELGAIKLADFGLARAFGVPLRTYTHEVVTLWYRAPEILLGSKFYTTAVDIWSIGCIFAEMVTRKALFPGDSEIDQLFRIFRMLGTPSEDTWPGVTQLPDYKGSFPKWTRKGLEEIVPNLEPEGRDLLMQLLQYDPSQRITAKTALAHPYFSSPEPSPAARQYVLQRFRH

[7] = target: Casein kinase II subunit alpha' (Homo sapiens) (UniProt P19784); assay: Inhibition of human CK2a2 at 18.6 nM by HotSpot assay relative to control
[8] = target: T2, NUAK family SNF1-like kinase 2 (Homo sapiens) (UniProt Q9H093); assay: Inhibition of human NUAK2 at 18.6 nM by HotSpot assay relative to control
T2 sequence (whole entry): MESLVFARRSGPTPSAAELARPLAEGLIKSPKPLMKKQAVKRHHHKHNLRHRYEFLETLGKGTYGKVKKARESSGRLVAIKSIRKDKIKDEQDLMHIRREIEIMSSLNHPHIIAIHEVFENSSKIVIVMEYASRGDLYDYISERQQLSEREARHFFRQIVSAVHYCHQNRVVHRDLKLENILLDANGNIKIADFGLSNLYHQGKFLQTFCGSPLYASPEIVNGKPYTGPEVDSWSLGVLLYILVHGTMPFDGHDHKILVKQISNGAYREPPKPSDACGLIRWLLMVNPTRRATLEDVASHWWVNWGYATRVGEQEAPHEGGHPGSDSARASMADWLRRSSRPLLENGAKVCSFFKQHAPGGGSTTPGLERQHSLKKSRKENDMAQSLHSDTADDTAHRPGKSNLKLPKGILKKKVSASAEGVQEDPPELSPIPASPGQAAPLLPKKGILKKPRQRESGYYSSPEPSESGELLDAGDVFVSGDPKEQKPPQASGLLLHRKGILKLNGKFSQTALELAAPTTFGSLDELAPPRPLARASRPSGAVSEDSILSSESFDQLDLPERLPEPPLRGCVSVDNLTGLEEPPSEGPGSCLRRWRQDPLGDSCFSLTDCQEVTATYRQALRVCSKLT

[9] = target: Serine/threonine-protein kinase Nek4 (Homo sapiens) (UniProt P51957); assay: Inhibition of human NEK4 at 18.6 nM by HotSpot assay relative to control
[10] = target: RAC-alpha serine/threonine-protein kinase (Homo sapiens) (UniProt P31749); assay: Inhibition of human AKT1 at 18.6 nM by HotSpot assay relative to control
[11] = target: Protein kinase C delta type (Homo sapiens) (UniProt Q05655); assay: Inhibition of human PKCd at 18.6 nM by HotSpot assay relative to control
[12] = target: CDK4/Cyclin D3 (Homo sapiens) (UniProt P11802+P30281); assay: Inhibition of human CDK4/cyclin D3 at 18.6 nM by HotSpot assay relative to control; type: protein-complex assay
[13] = target: Dual specificity protein kinase CLK3 (Homo sapiens) (UniProt P49761); settings: dose 1.82 nM
Description: Inhibition of human CLK3 at 1.82 nM by HotSpot assay relative to control

[14] = target: Serine/threonine-protein kinase MRCK beta (Homo sapiens) (UniProt Q9Y5S2); assay: Inhibition of human CDC42BPB at 1.82 nM by HotSpot assay relative to control
[15] = target: Vascular endothelial growth factor receptor 3 (Homo sapiens) (UniProt P35916); assay: Inhibition of human FLT4 at 1.82 nM by HotSpot assay relative to control
Sequence of Vascular endothelial growth factor receptor 3 (Homo sapiens) (P35916 whole entry): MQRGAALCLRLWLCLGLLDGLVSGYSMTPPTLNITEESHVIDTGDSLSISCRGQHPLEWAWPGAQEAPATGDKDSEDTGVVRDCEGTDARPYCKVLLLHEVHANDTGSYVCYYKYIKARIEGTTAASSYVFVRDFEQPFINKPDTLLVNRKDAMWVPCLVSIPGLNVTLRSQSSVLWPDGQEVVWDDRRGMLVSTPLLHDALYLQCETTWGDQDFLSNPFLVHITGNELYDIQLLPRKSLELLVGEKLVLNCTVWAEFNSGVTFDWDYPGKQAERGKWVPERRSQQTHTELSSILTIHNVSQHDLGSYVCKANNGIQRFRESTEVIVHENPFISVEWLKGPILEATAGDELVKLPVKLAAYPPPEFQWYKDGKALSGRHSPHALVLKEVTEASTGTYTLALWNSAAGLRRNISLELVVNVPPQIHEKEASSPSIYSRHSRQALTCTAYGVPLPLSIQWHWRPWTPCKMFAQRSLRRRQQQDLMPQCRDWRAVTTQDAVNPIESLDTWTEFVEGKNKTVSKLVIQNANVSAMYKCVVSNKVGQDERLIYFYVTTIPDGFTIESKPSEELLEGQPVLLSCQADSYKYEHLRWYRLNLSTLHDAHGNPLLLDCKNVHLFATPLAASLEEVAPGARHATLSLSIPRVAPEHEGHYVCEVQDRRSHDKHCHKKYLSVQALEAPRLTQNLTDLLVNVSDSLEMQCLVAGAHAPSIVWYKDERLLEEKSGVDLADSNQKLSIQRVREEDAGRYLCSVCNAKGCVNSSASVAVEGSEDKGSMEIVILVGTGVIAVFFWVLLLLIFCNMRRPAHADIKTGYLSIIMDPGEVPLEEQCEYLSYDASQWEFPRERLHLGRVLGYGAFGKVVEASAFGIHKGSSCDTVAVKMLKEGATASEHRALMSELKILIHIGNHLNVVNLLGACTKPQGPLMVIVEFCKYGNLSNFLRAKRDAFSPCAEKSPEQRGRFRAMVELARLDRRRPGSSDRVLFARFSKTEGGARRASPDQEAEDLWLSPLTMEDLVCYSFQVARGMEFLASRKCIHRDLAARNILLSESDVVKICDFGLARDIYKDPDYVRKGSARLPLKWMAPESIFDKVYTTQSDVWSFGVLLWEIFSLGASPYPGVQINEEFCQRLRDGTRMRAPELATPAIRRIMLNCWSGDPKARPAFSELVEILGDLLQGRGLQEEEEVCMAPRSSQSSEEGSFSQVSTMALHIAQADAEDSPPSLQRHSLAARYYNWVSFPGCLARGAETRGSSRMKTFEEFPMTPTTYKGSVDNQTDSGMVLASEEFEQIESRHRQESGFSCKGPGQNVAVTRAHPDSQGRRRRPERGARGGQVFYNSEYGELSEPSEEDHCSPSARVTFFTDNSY

[16] = target: Ribosomal protein S6 kinase alpha-3 (Homo sapiens) (UniProt P51812); assay: Inhibition of human RSK2 at 1.82 nM by HotSpot assay relative to control
Sequence of Ribosomal protein S6 kinase alpha-3 (Homo sapiens) (P51812 whole entry): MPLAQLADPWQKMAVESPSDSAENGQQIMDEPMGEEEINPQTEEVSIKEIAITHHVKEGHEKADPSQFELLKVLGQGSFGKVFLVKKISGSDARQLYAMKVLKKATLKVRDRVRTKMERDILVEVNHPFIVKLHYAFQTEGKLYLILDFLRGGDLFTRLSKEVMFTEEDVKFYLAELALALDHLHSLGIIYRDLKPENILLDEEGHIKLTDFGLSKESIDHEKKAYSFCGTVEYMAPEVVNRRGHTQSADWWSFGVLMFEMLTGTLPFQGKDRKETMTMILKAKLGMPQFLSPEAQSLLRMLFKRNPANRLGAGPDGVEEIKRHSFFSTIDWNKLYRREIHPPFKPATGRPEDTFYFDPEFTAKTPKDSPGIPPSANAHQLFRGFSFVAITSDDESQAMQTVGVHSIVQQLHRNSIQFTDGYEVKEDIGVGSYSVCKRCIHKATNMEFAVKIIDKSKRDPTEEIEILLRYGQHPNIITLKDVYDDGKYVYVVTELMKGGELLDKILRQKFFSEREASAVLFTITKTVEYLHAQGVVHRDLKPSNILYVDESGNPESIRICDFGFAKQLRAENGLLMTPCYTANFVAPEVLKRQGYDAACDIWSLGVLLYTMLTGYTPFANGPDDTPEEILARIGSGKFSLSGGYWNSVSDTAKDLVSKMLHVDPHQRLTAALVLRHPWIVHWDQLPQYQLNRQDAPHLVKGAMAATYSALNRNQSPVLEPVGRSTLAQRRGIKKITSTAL

[17] = target: Calcium/calmodulin-dependent protein kinase type II subunit beta (Homo sapiens) (UniProt Q13554); assay: Inhibition of human CAMK2b at 1.82 nM by HotSpot assay relative to control

Sequence of Serine/threonine-protein kinase pim-2 (Homo sapiens) (Q9P1W9 whole entry, looked up): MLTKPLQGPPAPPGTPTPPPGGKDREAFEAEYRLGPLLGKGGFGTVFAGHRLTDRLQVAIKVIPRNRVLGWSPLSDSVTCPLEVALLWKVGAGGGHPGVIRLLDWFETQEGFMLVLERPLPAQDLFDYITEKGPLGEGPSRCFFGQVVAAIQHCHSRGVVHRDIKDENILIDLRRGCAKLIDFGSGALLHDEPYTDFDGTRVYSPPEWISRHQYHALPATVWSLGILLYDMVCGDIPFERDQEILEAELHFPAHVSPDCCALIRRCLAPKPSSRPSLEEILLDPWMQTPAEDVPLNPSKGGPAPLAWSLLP

SMILES: Nc1n[nH]c2nnc(-c3c(-c4ccccc4)nn4ccccc34)cc12
- inhibition [1]: 8.35%

- inhibition [2]: 2.05%
- inhibition [3]: -9.59%
- inhibition [4]: 1.94%
- inhibition [5]: -9.34%
- inhibition [6]: 0.86%
- inhibition [7]: 38.2%
- inhibition [8]: 11%
- inhibition [9]: -3.26%
- inhibition [10]: -3.01%
- inhibition [11]: -2%
- inhibition [12]: 2.46%
SMILES: C[C@]1(O)C[C@@H](c2nc(-c3ccc4ccc(-c5ccccc5)nc4c3)c3c(N)nccn32)C1

- inhibition [13]: -1.35%
- inhibition [14]: -4.49%
- inhibition [15]: -6.12%
- inhibition [16]: 2.83%
- inhibition [17]: 4.93%
SMILES: C[C@@]1(C(=O)Nc2ccc(F)nc2)CCCN1c1nc(Nc2cc(C3CC3)n[nH]2)c2cccn2n1
